From patent US10239883B2, “4-imidazopyridazin-1-yl-benzamides as BTK inhibitors” (Merck Sharp & Dohme B.V., priority 2011, dated 2019)

Each molecule was assayed against Btk enzyme (His-Btk) (Homo sapiens (Human), UniProt Q06187) (assay: Btk enzyme activity, IMAP fluorescence polarization assay). Details: 60 min pre-incubation, 5 μM ATP, bin bound in nM.
Chain of Btk enzyme (His-Btk) (Q06187 whole entry): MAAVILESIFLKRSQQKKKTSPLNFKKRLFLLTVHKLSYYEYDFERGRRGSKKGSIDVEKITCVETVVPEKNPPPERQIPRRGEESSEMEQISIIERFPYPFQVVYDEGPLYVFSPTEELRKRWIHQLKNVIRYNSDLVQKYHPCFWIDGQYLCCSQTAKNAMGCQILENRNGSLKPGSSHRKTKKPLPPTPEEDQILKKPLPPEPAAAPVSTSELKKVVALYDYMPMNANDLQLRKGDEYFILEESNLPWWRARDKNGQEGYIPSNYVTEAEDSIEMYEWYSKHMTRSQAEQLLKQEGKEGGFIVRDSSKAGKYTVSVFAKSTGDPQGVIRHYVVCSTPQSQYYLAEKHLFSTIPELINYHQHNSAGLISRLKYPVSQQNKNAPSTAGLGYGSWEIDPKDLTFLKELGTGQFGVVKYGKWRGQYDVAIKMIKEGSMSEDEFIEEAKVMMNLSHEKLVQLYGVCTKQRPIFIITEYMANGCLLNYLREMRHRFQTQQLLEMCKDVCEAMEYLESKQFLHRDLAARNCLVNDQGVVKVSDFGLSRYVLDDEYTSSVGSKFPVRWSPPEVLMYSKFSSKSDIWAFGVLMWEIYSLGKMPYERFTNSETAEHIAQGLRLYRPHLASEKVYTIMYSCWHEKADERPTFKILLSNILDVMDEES

Compound | EC50 Btk activity values [nM]
C[C@H](NC(=O)c1ccnc(Cl)n1)c1nc(-c2ccc(C(=O)Nc3ccccn3)cc2)c2c(N)nccn12 [Example 105, (S)-N-(1-(8-amino-1-(4-(pyridin-2-ylcarbamoyl)phenyl)imidazo[1,5-a]pyrazin-3-yl)ethyl)-2-chloropyrimidine-4-carboxamide] | <100
Nc1nccn2c([C@@H]3CCCN3C(=O)c3ccnc(Cl)n3)nc(-c3ccc(C(=O)Nc4nc5c(s4)CCCC5)cc3)c12 [Example 71, (S)-4-(8-amino-3-(1-(2-chloropyrimidine-4-carbonyl)pyrrolidin-2-yl)imidazo[1,5-a]pyrazin-1-yl)-N-(4,5,6,7-tetrahydrobenzo[d]thiazol-2-yl)benzamide] | <100
COC/C=C/C(=O)N1CCC[C@H]1c1nc(-c2ccc(C(=O)Nc3nc4c(s3)CCCC4)cc2)c2c(N)nccn12 [Example 82, (S,E)-4-(8-amino-3-(1-(4-methoxybut-2-enoyl)pyrrolidin-2-yl)imidazo[1,5-a]pyrazin-1-yl)-N-(4,5,6,7-tetrahydrobenzo[d]thiazol-2-yl)benzamide] | <100
CC#CC(=O)N(C)[C@@H](C)c1nc(-c2ccc(C(=O)Nc3cc(CCC)ccn3)cc2)c2c(N)nccn12 [Example 113, (S)-4-(8-amino-3-(1-(N-methylbut-2-ynamido)ethyl)imidazo[1,5-a]pyrazin-1-yl)-N-(4-propylpyridin-2-yl)benzamide] | <100
COc1cc(-c2nc([C@@H]3CCCN3C(=O)c3ccnc(Cl)n3)n3ccnc(N)c23)ccc1C(=O)Nc1ccccn1 [Example 83, (S)-4-(8-amino-3-(1-(2-chloropyrimidine-4-carbonyl)pyrrolidin-2-yl)imidazo[1,5-a]pyrazin-1-yl)-2-methoxy-N-(pyridin-2-yl)benzamide] | <100
CN(C)C/C=C/C(=O)N1CCC[C@H]1c1nc(-c2ccc(C(=O)Nc3cc(F)ccn3)cc2)c2c(N)nccn12 [Example 7, (S,E)-4-(8-Amino-3-(1-(4-(dimethylamino)but-2-enoyl)pyrrolidin-2-yl)imidazo[1,5-a]pyrazin-1-yl)-N-(4-fluoropyridin-2-yl)benzamide] | <100
CCc1ccnc(NC(=O)c2ccc(-c3nc([C@@H]4CCCN4C(=O)/C=C/COC)n4ccnc(N)c34)cc2)c1 [Example 11, (S,E)-4-(8-Amino-3-(1-(4-methoxybut-2-enoyl)pyrrolidin-2-yl)imidazo[1,5-a]pyrazin-1-yl)-N-(4-ethylpyridin-2-yl)benzamide] | <100
CC#CC(=O)N1CCC[C@H]1c1nc(-c2ccc(C(=O)Nc3cc(F)ccn3)cc2)c2c(N)nccn12 [Example 106, (S)-4-(8-amino-3-(1-but-2-ynoylpyrrolidin-2-yl)imidazo[1,5-a]pyrazin-1-yl)-N-(4-fluoropyridin-2-yl)benzamide] | <100
CC(C)c1ccnc(NC(=O)c2ccc(-c3nc([C@@H]4CCCN4C(=O)c4ccnc(Cl)n4)n4ccnc(N)c34)cc2)c1 [Example 70, (S)-4-(8-amino-3-(1-(2-chloropyrimidine-4-carbonyl)pyrrolidin-2-yl)imidazo[1,5-a]pyrazin-1-yl)-N-(4-isopropylpyridin-2-yl)benzamide] | <100
CC#CC(=O)N1CCCC[C@H]1c1nc(-c2ccc(C(=O)Nc3ccon3)cc2)c2c(N)nccn12 [Example 24, (S)-4-(8-Amino-3-(1-but-2-ynoylpiperidin-2-yl)imidazo[1,5-a]pyrazin-1-yl)-N-(isoxazol-3-yl)benzamide] | <100
COC/C=C/C(=O)N1CCC[C@H]1c1nc(-c2ccc(C(=O)Nc3cc(C(C)C)ccn3)cc2)c2c(N)nccn12 [Example 58, (S,E)-4-(8-amino-3-(1-(4-methoxybut-2-enoyl)pyrrolidin-2-yl)imidazo[1,5-a]pyrazin-1-yl)-N-(4-isopropylpyridin-2-yl)benzamide] | <100
CN(C)CC#CC(=O)N1CCC[C@H]1c1nc(-c2ccc(C(=O)Nc3ccccn3)cc2)c2c(N)nccn12 [Example 40, (S)-4-(8-Amino-3-(1-(4-(dimethylamino)but-2-ynoyl)pyrrolidin-2-yl)imidazo[1,5-a]pyrazin-1-yl)-N-(pyridin-2-yl)benzamide] | <100
CN(C)C/C=C/C(=O)NCc1nc(-c2ccc(C(=O)Nc3ccccn3)cc2)c2c(N)nccn12 [Example 69, (E)-4-(8-amino-3-((4-(dimethylamino)but-2-enamido)methyl)imidazo[1,5-a]pyrazin-1-yl)-N-(pyridin-2-yl)benzamide] | <100
COC/C=C/C(=O)N1CCC[C@H]1c1nc(-c2ccc(C(=O)Nc3ccccn3)c(OC)c2)c2c(N)nccn12 [Example 103, (S,E)-4-(8-amino-3-(1-(4-methoxybut-2-enoyl)pyrrolidin-2-yl)imidazo[1,5-a]pyrazin-1-yl)-2-methoxy-N-(pyridin-2-yl)benzamide] | <100
CC#CC(=O)N1CCC[C@H]1c1nc(-c2ccc(C(=O)Nc3ccccn3)c(OC)c2)c2c(N)nccn12 [Example 99, (S)-4-(8-amino-3-(1-but-2-ynoylpyrrolidin-2-yl)imidazo[1,5-a]pyrazin-1-yl)-2-methoxy-N-(pyridin-2-yl)benzamide] | <100
Nc1nccn2c([C@@H]3CCCCN3C(=O)c3ccnc(Cl)n3)nc(-c3ccc(C(=O)Nc4cc(F)ccn4)cc3)c12 [Example 80, (S)-4-(8-amino-3-(1-(2-chloropyrimidine-4-carbonyl)piperidin-2-yl)imidazo[1,5-a]pyrazin-1-yl)-N-(4-fluoropyridin-2-yl)benzamide] | <100
CN(C)C/C=C/C(=O)N1CCCC[C@H]1c1nc(-c2ccc(C(=O)Nc3cccnn3)cc2)c2c(N)nccn12 [Example 73, (S,E)-4-(8-amino-3-(1-(4-(dimethylamino)but-2-enoyl)piperidin-2-yl)imidazo[1,5-a]pyrazin-1-yl)-N-(pyridazin-3-yl)benzamide] | <100
COC/C=C/C(=O)N1CCC[C@H]1c1nc(-c2ccc(C(=O)Nc3cc(OC)ccn3)cc2)c2c(N)nccn12 [Example 51, (S,E)-4-(8-amino-3-(1-(4-methoxybut-2-enoyl)pyrrolidin-2-yl)imidazo[1,5-a]pyrazin-1-yl)-N-(4-methoxypyridin-2-yl)benzamide] | <100
CC#CC(=O)N1CCC[C@H]1c1nc(-c2ccc(C(=O)Nc3cc(N4CCCC4)ccn3)cc2)c2c(N)nccn12 [Example 96, (S)-4-(8-amino-3-(1-but-2-ynoylpyrrolidin-2-yl)imidazo[1,5-a]pyrazin-1-yl)-N-(4-(pyrrolidin-1-yl)pyridin-2-yl)benzamide] | <100
CC#CC(=O)NCc1nc(-c2ccc(C(=O)Nc3ccccn3)cc2)c2c(N)nccn12 [Example 112, 4-(8-amino-3-(but-2-ynamidomethyl)imidazo[1,5-a]pyrazin-1-yl)-N-(pyridin-2-yl)benzamide] | <100
Nc1nccn2c([C@@H]3CCCN3C(=O)/C=C/CN3CCCC3)nc(-c3ccc(C(=O)Nc4ccccn4)cc3)c12 [Example 2, (S,E)-4-(8-amino-3-(1-(4-(pyrrolidin-1-yl)but-2-enoyl)pyrrolidin-2-yl)imidazo[1,5-a]pyrazin-1-yl)-N-(pyridin-2-yl)benzamide] | <100
COCC#CC(=O)N1CCC[C@H]1c1nc(-c2ccc(C(=O)Nc3ccccn3)cc2)c2c(N)nccn12 [Example 41, (S)-4-(8-Amino-3-(1-(4-methoxybut-2-ynoyl)pyrrolidin-2-yl)imidazo[1,5-a]pyrazin-1-yl)-N-(pyridin-2-yl)benzamide] | <100
COC/C=C/C(=O)NCc1nc(-c2ccc(C(=O)Nc3ccccn3)cc2)c2c(N)nccn12 [Example 95, (E)-4-(8-amino-3-((4-methoxybut-2-enamido)methyl)imidazo[1,5-a]pyrazin-1-yl)-N-(pyridin-2-yl)benzamide] | <100

Same assay, conditions: 60 min pre-incubation, 5 μM ATP, bin bound in μM

Compound | EC50 Btk activity values [nM]
N#CCN1CCC[C@H]1c1nc(-c2ccc(C(=O)Nc3ccccn3)cc2)c2c(N)nccn12 [Example 94, (S)-4-(8-amino-3-(1-(cyanomethyl)pyrrolidin-2-yl)imidazo[1,5-a]pyrazin-1-yl)-N-(pyridin-2-yl)benzamide] | <1000
COC/C=C/C(=O)N1CCCC[C@H]1c1nc(-c2ccc(C(=O)Nc3ccncn3)cc2)c2c(N)nccn12 [Example 86, (S,E)-4-(8-amino-3-(1-(4-methoxybut-2-enoyl)piperidin-2-yl)imidazo[1,5-a]pyrazin-1-yl)-N-(pyrimidin-4-yl)benzamide] | <1000
Nc1nccn2c([C@@H]3CCCCN3C(=O)c3ccnc(Cl)n3)nc(-c3ccc(C(=O)Nc4ncccn4)cc3)c12 [Example 90, (S)-4-(8-amino-3-(1-(2-chloropyrimidine-4-carbonyl)piperidin-2-yl)imidazo[1,5-a]pyrazin-1-yl)-N-(pyrimidin-2-yl)benzamide] | <1000
COC/C=C/C(=O)N1CCCC[C@H]1c1nc(-c2ccc(C(=O)Nc3nccc(C)n3)cc2)c2c(N)nccn12 [Example 88, (S,E)-4-(8-amino-3-(1-(4-methoxybut-2-enoyl)piperidin-2-yl)imidazo[1,5-a]pyrazin-1-yl)-N-(4-methylpyrimidin-2-yl)benzamide] | <1000
COC/C=C/C(=O)N1CCCC[C@H]1c1nc(-c2ccc(C(=O)Nc3cccnn3)cc2)c2c(N)nccn12 [Example 72, (S,E)-4-(8-amino-3-(1-(4-methoxybut-2-enoyl)piperidin-2-yl)imidazo[1,5-a]pyrazin-1-yl)-N-(pyridazin-3-yl)benzamide] | <1000
C=CC(=O)N1CCCC[C@H]1c1nc(-c2ccc(C(=O)Nc3ccccn3)cc2C)c2c(N)nccn12 [Example 68, 4-(3-((S)-1-acryloylpiperidin-2-yl)-8-aminoimidazo[1,5-a]pyrazin-1-yl)-3-methyl-N-(pyridin-2-yl)benzamide] | <1000
